Laboratory results published in patent US11666644B2, “Peptide vaccines” (TREOS BIO LIMITED, priority 2018, dated 2023).

system: metastatic ovarian adenocarcinoma; assay: Patient-A clinical outcome and tumor MRI findings (lesion responses); format: in vivo, human; conditions: SUM of lesions, Dec. 25, 2016, before PIT vaccine treatment
From the text: For treatment of Patient-A the 13 peptides were formulated as 4×3 or 4 peptide (POC01/1, POC01/2, POC01/3, POC01/4). One treatment cycle is defined as administration of all 13 peptides within 30 days.
2017-2018: Patient-A received 8 cycles of vaccination as add-on therapy, and lived 17 months (528 days) after start of the treatment. […] They died in October 2018.
Patient's tumor MRI findings (Baseline Apr. 15, 2016) (BL: baseline for tumor response evaluation on FIG. 35)
• Rapid progression in lymph nodes, hepatic, retroperitoneal and thoracic areas, significant pleural fluid and ascites. Initiate Carboplatin, Gemcitabine, Avastin. Sep. […] Nov. […] Remission in hepatic, retroperitoneal area and lymph nodes Apr. 13, 2018: Progression • Complete remission in the thoracic and retroperitoneal regions. Progression in hepatic centers and lymph nodes Jun. […] Minimal regression in hepatic centers and lymph nodes July 2018: Progression October 2018: Patient-A died Partial MRI data for Patient-A is shown in Table 23 and FIG. 35.

| Molecule | FU2 (% Δ from BL) |
| --- | --- |
| O=C(c1cc(Cc2n[nH]c(=O)c3ccccc23)ccc1F)N1CCN(C(=O)C2CC2)CC1 [Olaparib] | −76.0% |

same assay, conditions: lesion TL2, Dec. 25, 2016, before PIT vaccine treatment

| Molecule | FU2 (% Δ from BL) |
| --- | --- |
| O=C(c1cc(Cc2n[nH]c(=O)c3ccccc23)ccc1F)N1CCN(C(=O)C2CC2)CC1 [Olaparib] | −100.0% |

same assay, conditions: lesion TL2, follow up 1, Olaparib treatment May 2016-January 2017

| Molecule | FUI (% Δ from BL) |
| --- | --- |
| O=C(c1cc(Cc2n[nH]c(=O)c3ccccc23)ccc1F)N1CCN(C(=O)C2CC2)CC1 [Olaparib] | −100.0% |

same assay, conditions: lesion TL2, follow-up time point of best response

| Molecule | Best Response Cycle |
| --- | --- |
| O=C(c1cc(Cc2n[nH]c(=O)c3ccccc23)ccc1F)N1CCN(C(=O)C2CC2)CC1 [Olaparib] | FU1 |

same assay, conditions: lesion TL4, Dec. 25, 2016, before PIT vaccine treatment

| Molecule | FU2 (% Δ from BL) |
| --- | --- |
| O=C(c1cc(Cc2n[nH]c(=O)c3ccccc23)ccc1F)N1CCN(C(=O)C2CC2)CC1 [Olaparib] | −100.0% |

same assay, conditions: lesion TL4, follow-up time point of best response

| Molecule | Best Response Cycle |
| --- | --- |
| O=C(c1cc(Cc2n[nH]c(=O)c3ccccc23)ccc1F)N1CCN(C(=O)C2CC2)CC1 [Olaparib] | FU2 |

system: HLA class I; assay: PEPI3+ Test: 9 mer epitopes binding to at least 3 HLA class I of individuals in the Model Population (n=433); design: species or system human; conditions: B % multiplied by N % (antigen expression frequency in gastric cancers)
From the text: Predicted binding between particular HLA and epitopes (9 mer peptides) was based on the Immune Epitope Database tool for epitope prediction (iedb.org).
The validated HLA-epitope binding prediction process was used to determine all HLA-epitope binding pairs described in the Examples below.
An in silico human trial cohort of 433 subjects with complete 4-digit HLA class I […] genotype (2×HLA-A*xx:xx; 2×HLA-B*xx:xx; 2×HLA-C*xx:xx) and demographic […] information was compiled. This Model Population has subjects with mixed ethnicity having a total of 152 different HLA alleles that are representative for >85% of presently known allele G-groups.
To select immunogenic peptides from the target CTAs, the PEPI3+ Test and the Model Population described in Example 8 were used to identify the 9 mer epitopes (PEPI3+s) that are most frequently presented by at least 3 HLAs of the individuals in the Model Population. These epitopes are referred to herein as “bestEPIs”. An illustrative example of the “PEPI3+ hotspot” analysis and bestEPI identification is shown in FIG. 15 for the PRAME antigen.
The reported expression frequency for each CTA was multiplied by the frequency of the PEPI3+ hotspots in the Model Population to identify the T cell epitopes (9 mers) that will induce a cytotoxic T cell response against gastric cancer antigens in the highest proportion of individuals (Table 20a). 15 mers were then selected encompassing each of the selected 9 mers (Table 20a). The 15 mers were selected to bind to most HLA class II alleles of most subjects. These 15 mers can induce both CTL and T helper responses in the highest proportion of subjects.

| Molecule | B % * N % |
| --- | --- |
| 5 (LQYENSIML; HIWI 9mer) [compound 5] | 28% |
| 11 (SSFSSSAPF; 5T4 9mer) [compound 11] | 17% |
| 30 (HVMNPLETL; PRAME 9mer) [compound 30] | 4% |
| 12 (FAHPRKLLM; MAGE-A2 9mer) [compound 12] | 17% |
| 21 (YEDHFPLLF; MAGE-A10 9mer) [compound 21] | 8% |
| 2 (KMHSLLALM; CAGE-1 9mer) [compound 2] | 33% |
| 4 (YLRLHRHAY; DPPA2 9mer) [compound 4] | 28% |
| 10 (FLYLPRDVL; 5T4 9mer) [compound 10] | 21% |
| 27 (SAFPTTINF; MAGE-A1 9mer) [compound 27] | 7% |
| 13 (SSNSTALAL; KK-LC-1 9mer) [compound 13] | 17% |
| 15 (STFKNWPFL; SURVIVIN 9mer) [compound 15] | 15% |
| 16 (FSTTINYTL; MAGE-A2 9mer) [compound 16] | 12% |
| 17 (ILNNFPHSI; KK-LC-1 9mer) [compound 17] | 11% |
| 3 (FSYEQDPTL; TSP50 9mer) [compound 3] | 29% |
| 6 (RAIEQLAAM; SURVIVIN 9mer) [compound 6] | 26% |
| 9 (LASNHFLYL; 5T4 9mer) [compound 9] | 21% |
| 28 (MTFGRLHRI; SSX1 9mer) [compound 28] | 7% |
| 14 (STNALIQPV; CAGE-1 9mer) [compound 14] | 16% |
| 19 (ITMPFSSPM; LAGE-1 9mer) [compound 19] | 9% |
| 22 (TSYVKVLEY; MAGE-A1 9mer) [compound 22] | 8% |
| 24 (NTDNNLAVY; KK-LC-1 9mer) [compound 24] | 8% |
| 1 (KMMKRLMTV; MAGE-C1 9mer) [compound 1] | 43% |
| 29 (RALAETSYV; MAGE-A1 9mer) [compound 29] | 5% |
| 7 (FVASINEGM; HIWI 9mer) [compound 7] | 21% |
| 25 (KAMVQAWPF; PRAME 9mer) [compound 25] | 7% |
| 8 (TTMETQFPV; TSP50 9mer) [compound 8] | 21% |
| 18 (FVQENYLEY; MAGE-A3 9mer) [compound 18] | 10% |

system: HLA class I; assay: as above; design: species or system human; conditions: N % (antigen expression frequency in lung cancers) multiplied by B %

| Molecule | N % * B % |
| --- | --- |
| 118 (FSTSSSLIL; MAGE-C2 9mer) [compound 118] | 7% |
| 110 (FVYGEPREL; MAGE-C2 9mer) [compound 110] | 10% |
| 98 (RAIEQLAAM; SURVIVIN 9mer) [compound 98] | 15% |
| 119 (RALAETSYV; MAGE-A1 9mer) [compound 119] | 5% |
| 109 (MASESLSVM; MAGE-C2 9mer) [compound 109] | 10% |
| 103 (KMMKRLMTV; DPPA2 9mer) [compound 103] | 13% |
| 106 (SVMDLVGSI; LDHC 9mer) [compound 106] | 11% |
| 107 (MMDLQHGSL; LDHC 9mer) [compound 107] | 11% |
| 93 (YSSFVFNLF; NALP4 9mer) [compound 93] | 19% |
| 102 (LLRHVMNPL; PRAME 9mer) [compound 102] | 13% |
| 101 (FQDFFPVIF; MAGE-A12 9mer) [compound 101] | 13% |
| 115 (YLRLHRHAY; DPPA2 9mer) [compound 115] | 9% |
| 92 (FSWPFQRPV; BRDT 9mer) [compound 92] | 21% |
| 94 (RAMEAFNLV; NALP4 9mer) [compound 94] | 18% |
| 105 (MLAKKHFSY; BRDT 9mer) [compound 105] | 11% |
| 99 (YIAQFTSQF; PRAME 9mer) [compound 99] | 14% |
| 100 (HVMNPLETL; PRAME 9mer) [compound 100] | 14% |
| 97 (FAHPRKLLM; MAGE-A2 9mer) [compound 97] | 15% |
| 91 (KAMVQAWPF; PRAME 9mer) [compound 91] | 23% |
| SEQ ID NO: 111: 9 mer bestEPI of MAGE-C2 within 15 mer SEQ ID NO: 141; printed 'ill' (SVMSSNVSF; MAGE-C2 9mer) | 9% |
| 104 (FVLANGHIL; NY-SAR-35 9mer) [compound 104] | 12% |
| 90 (FAADVRLMF; BRDT 9mer) [compound 90] | 28% |
| 108 (FSTTINYTL; MAGE-A2 9mer) [compound 108] | 10% |
| 95 (FVIDSFEEL; NALP4 9mer) [compound 95] | 17% |
| 117 (SSNSTALAL; KK-LC-1 9mer) [compound 117] | 7% |
| 114 (STFKNWPFL; SURVIVIN 9mer) [compound 114] | 9% |
| 112 (FVQENYLEY; MAGE-A3 9mer) [compound 112] | 9% |
